Laboratory results taken from article PMC7873477, “Fermentative Production of L-2-Hydroxyglutarate by Engineered Corynebacterium glutamicum via Pathway Extension of L-Lysine Biosynthesis” (Frontiers in Bioengineering and Biotechnology, 2021).

Assays:
CsiD (HEGluA) = target: T1, CsiD (HEGluA) (Escherichia coli, UniProt P76621); experiment: L-2HG formation by engineered C. glutamicum, HPLC of supernatant; format: cell-based, Corynebacterium glutamicum; settings: whole cells, endogenously formed glutarate; Fe(II) and 2-oxoglutarate dependent; 96 h
T1 construct: gene glaH; untagged, from pVWEx1-ldcC-csiD(Ec) in C. glutamicum GSLA2G; whole-cell production
T1 sequence (P76621 1-325): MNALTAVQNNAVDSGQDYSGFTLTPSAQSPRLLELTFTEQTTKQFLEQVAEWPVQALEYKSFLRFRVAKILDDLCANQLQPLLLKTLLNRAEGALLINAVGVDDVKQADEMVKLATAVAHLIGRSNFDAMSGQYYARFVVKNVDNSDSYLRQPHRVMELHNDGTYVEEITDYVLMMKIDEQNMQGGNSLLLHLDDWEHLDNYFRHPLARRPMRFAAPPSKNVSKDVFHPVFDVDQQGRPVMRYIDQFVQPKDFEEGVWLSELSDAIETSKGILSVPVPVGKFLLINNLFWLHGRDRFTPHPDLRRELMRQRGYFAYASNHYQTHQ

CsiD (HPGluA) = target: T2, CsiD (HPGluA) (Pseudomonas putida, UniProt Q88IU0); experiment: as above; format: cell-based; settings: whole cells, endogenously formed glutarate; Fe(II) and 2-oxoglutarate dependent; 96 h
T2 construct: gene glaH; untagged, from pVWEx1-ldcC-csiD(Pp) in C. glutamicum GSLA2G; whole-cell production
T2 sequence (Q88IU0 1-325): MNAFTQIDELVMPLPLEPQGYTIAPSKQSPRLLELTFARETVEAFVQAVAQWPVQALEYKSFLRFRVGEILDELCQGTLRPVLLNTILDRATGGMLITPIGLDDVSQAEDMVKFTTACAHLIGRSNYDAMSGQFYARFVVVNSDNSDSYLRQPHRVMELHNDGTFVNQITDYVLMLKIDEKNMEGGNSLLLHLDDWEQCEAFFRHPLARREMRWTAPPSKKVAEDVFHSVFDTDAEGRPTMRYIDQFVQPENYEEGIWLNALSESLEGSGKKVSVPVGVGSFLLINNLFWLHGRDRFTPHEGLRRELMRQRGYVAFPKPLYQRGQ

For `O=C(O)CCCC(=O)O` [glutarate], the “L-2HG formation by engineered C. glutamicum, HPLC of supernatant” value (CsiD (HEGluA)) was “the three strains produced and secreted L-2HG” and the “L-2HG formation by engineered C. glutamicum, HPLC of supernatant” value (CsiD (HPGluA)) was “the three strains produced and secreted L-2HG”.
